# In article PMC9032570, “Flavonoids and Phenols, the Potential Anti-Diabetic Compounds from Bauhinia strychnifolia Craib. Stem” (Molecules, 2022):
# Where two headings read alike, the source gives them in different places.
# Columns and labels:
# [1] = tested on: LPS-induced raw 264.7 cells; test: Nitric oxide production in LPS-induced raw 264.7 cells (Griess assay); format: cell-based, murine; conditions: 200 ng/mL LPS, 24 h, Figure 5
# Protocol: The investigation of the inhibitory activities against LPS induced nitric oxide (NO) production of crude extract, partitioned fractions, and isolated compounds by Griess assay, which was accomplished as described by Kaewdana et al.. Briefly, Raw264.7 cells were seeded, at the density of 1 × 10^5 cells/well, in 96-well plates. After 1–2 h culture, the medium was changed and co-treated with different concentrations of samples and 200 ng/mL LPS for 24 h. After that, the nitrite-containing medium was equally mixed with the Griess reagent (1% sulfanilamide in 5% phosphoric acid and 0.1% naphthyl ethylenediamine dihydrochloride (NED) in water) and measured by a microplate reader at 570 nm. Indomethacin (a nonsteroidal anti-inflammatory drug) was used as a positive control. Results were shown as the percentage of inhibition calculated, following the equation: [(Acontrol − Asample)/Acontrol] × 100.
# 3T3-L1 adipocytes = test: Glucose uptake assay in differentiated 3T3-L1 adipocytes (GO kit); format: cell-based, mouse; conditions: for glucose uptake stimulation: positive control
# Protocol: The 3T3-L1 pre-adipocytes were induced to differentiate into adult adipocytes after 48 h of confluence in 48 wells plate. The cells were incubated with cultured media, comprising of 1 µg/mL insulin, 10 µM dexamethasone, and 0.5 mM IBMX. After 48 h of incubation, differentiate media were removed and replaced with cultured media containing 1 µg/mL insulin. Then, the maintained media were changed every two days for eight days.
# The glucose uptake stimulatory effect of crude extract, partitioned fractions, and isolated compounds was determined by the previously described method [60]. Briefly, differentiated adipocytes were grown in 48-well plates, with cultured media containing 2% FBS, for 18 h. Then, the cells were washed and treated with various concentrations of samples in a complete low glucose medium. After 24 h of incubation, the treated medium of samples was individually transferred into 96-well plates and mixed with the reagent of the GO kit at 37 °C for 30 min. The reaction was terminated by 6M H2SO4, and the absorbance of remaining glucose at 540 nm was recorded by a microplate reader. The ability to enhance glucose uptake was measured by the amount of glucose in the media. The percentage of glucose uptake stimulation was calculated by following equation: %stimulation = [(Acontrol − Asample)/Acontrol] × 100, where Acontrol and Asample were the absorbances of reaction with and without sample, respectively.
# [2] = target: T1, dipeptidyl peptidase-IV (DPP-IV) from porcine kidney (Sus scrofa, UniProt P22411); test: Dipeptidyl peptidase-IV (DPP-IV) inhibitory assay (GP-p-NA substrate); format: biochemical
# T1 construct: purchased Sigma Aldrich Inc. (St. Louis, MO. USA); host or cells: porcine kidney (tissue-derived enzyme)
# T1 sequence (P22411 whole entry): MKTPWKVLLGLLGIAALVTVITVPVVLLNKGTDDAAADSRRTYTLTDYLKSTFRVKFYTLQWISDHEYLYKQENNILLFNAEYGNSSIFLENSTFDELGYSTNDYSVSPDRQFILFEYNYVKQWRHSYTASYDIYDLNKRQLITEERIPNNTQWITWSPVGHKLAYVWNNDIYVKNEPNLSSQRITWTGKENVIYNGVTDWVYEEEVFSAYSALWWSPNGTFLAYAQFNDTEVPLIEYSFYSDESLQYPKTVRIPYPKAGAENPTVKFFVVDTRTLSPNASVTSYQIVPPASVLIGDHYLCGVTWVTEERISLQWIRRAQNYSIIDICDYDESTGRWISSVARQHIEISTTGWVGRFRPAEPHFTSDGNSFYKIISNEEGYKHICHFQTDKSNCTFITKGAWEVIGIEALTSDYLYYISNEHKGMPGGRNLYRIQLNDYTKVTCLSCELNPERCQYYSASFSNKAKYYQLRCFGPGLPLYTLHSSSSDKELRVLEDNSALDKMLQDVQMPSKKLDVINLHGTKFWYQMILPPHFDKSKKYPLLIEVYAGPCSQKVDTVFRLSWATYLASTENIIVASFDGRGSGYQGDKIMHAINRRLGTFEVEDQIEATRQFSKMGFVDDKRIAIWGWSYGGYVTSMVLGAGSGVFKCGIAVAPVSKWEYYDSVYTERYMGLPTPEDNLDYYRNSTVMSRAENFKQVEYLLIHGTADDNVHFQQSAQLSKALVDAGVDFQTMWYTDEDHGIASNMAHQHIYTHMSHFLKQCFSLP
# Description: (§1) Folin–Ciocalteu reagent was bought from Merck (Darmstadt, Germany). Fetal bovine serum (FBS), penicillin-streptomycin, Dulbecco’s Modified Eagle Medium, high glucose (DMEM, high glucose), Roswell Park Memorial Institute (RPMI) 1640 medium, trypsin-EDTA, trypan blue dyes, and 3-(4,5-dimethylthiazol-2-yl)-2,5 diphenyltetrazolium bromide (MTT) were obtained from Thermo Fisher Scientific (Waltham, CA, USA). Ethanol, methanol, hexane, dichloromethane, ethyl acetate, and acetone (as analytical grades) were purchased from Labscan Asia Co., Bangkok, Thailand.
# The DPP-IV inhibition activities of crude extract, partitioned fractions, and isolated pure compounds were investigated, following the procedure of Van et al. (2009) and Al-Masri et al. (2009), with some modifications. Concisely, 40 µL of each sample diluted in 50 mM Tris-HCl buffer, pH 8.0 (at final concentration 50 ug/mL), was pre-incubated with 30 µL of 0.05 U/mL of DPP-IV enzyme at 37 °C. After 10 min, 100 µL of 0.2 mM GP-p-NA substrate was added to the solution and further incubated for 30 min. Then, the reaction was terminated with 30 µL of 25% acetic acid, and the absorbance at 405 nm was suddenly measured by a microplate reader (DTX880 Multimode Detector, Beckman Coulter®, Wein, Austria). The percentage of inhibition was calculated, following the formula: [(Acontrol − Asample)/Acontrol] × 100, where Acontrol and Asample were the absorbances of reaction with and without sample, respectively. Diprotin A was employed as a positive control, and the results were presented as the IC50 value.
# [3] = target: T2, α-glucosidase from Saccharomyces cerevisiae (Saccharomyces cerevisiae, UniProt P53341); test: α-Glucosidase inhibitory assay (pNPG substrate); format: biochemical; conditions: for IC50: IC50 α-Glucosidase
# T2 construct: purchased Sigma Aldrich Inc. (St. Louis, MO. USA)
# T2 sequence (P53341 whole entry): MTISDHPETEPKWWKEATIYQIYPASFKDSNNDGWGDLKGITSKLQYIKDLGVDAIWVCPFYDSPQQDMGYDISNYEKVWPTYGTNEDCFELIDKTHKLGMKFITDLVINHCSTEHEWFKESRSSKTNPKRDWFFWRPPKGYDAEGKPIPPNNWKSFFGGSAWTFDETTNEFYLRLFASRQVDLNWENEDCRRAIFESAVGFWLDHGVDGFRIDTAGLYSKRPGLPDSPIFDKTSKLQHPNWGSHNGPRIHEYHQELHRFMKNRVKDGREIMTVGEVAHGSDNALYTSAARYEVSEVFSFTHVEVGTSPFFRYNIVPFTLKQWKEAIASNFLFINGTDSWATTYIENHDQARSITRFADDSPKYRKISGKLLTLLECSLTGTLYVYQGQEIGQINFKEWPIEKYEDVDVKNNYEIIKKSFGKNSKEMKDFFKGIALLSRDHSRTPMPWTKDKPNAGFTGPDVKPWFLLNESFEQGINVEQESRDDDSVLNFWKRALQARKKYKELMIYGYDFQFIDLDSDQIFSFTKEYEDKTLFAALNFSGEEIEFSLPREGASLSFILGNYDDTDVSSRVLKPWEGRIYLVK
# Description: as §1
# The inhibitory effects against α-glucosidase enzyme of crude extract, partitioned fractions, and all isolated pure compounds were examined according to previous assay. In brief, 50 µL of each sample in 50 mM phosphate buffer, pH 6.9 (at various concentrations), was pre-mixed with 50 µL of 0.57 U/mL α-glucosidase enzyme for 10 min at 37 °C. Then, 50 µL of 5 mM pNPG substrate was added into the mixture and further incubated for 30 min, after that stopping the reaction by 50 µL of 1 M sodium carbonate solution (Na2CO3). A microplate reader (DTX880 Multimode Detector, Beckman Coulter®, Wien, Austria) immediately measured the absorbance at 405 nm. The following equation calculated the percentage of inhibition: [(Acontrol − Asample)/Acontrol] × 100, where Acontrol and Asample were the absorbance of reaction without and with the sample, respectively.
# α-glucosidase = target: α-glucosidase; design: method as in earlier work; conditions: known active flavonoids from B. strychnifolia stem; cited from earlier work
# [4] = molar value, in parentheses in Table 3
Compound,effect on NO production (in words) [1],IC50 [2],"IC50 [2, 4]",further results
O=c1c(O)c(-c2ccc(O)c(O)c2)oc2cc(O)cc(O)c12 [Quercetin],no effect,8.24 µM,8.25 µM,"glucose uptake stimulation effect (in words) (3T3-L1 adipocytes; Figure 4): higher glucose uptake stimulation effect than resveratrol, gallic acid, and epicatechin"
insulin,–,–,–,glucose uptake stimulation (3T3-L1 adipocytes; 100 nM): 92.81%
"COc1ccc2c(c1)c(CC(=O)O)c(C)n2C(=O)c1ccc(Cl)cc1 [Indomethacin, indomethacin, reference compound]",potent anti-inflammatory,–,–,–
O=C(O)c1cc(O)c(O)c(O)c1 [Gallic acid],inhibitory effect on NO production at only high concentrations,> 50 µM,> 50 µM,"α-glucosidase inhibitory ability (in words) [3]: no effect; IC50 [3]: > 25 µM; IC50 [3, 4]: > 25 µM"
Oc1ccc(/C=C/c2cc(O)cc(O)c2)cc1 [Resveratrol],inhibitory effect on NO production at only high concentrations,14.1 µM,14.1 µM,–
"C[C@@H]1O[C@@H](Oc2coc3cc(O)cc(O)c3c2=O)[C@H](O)[C@H](O)[C@H]1O [3,5,7-Trihydroxychromone-3-O-α-L-rhamnopyranoside]",–,–,–,IC50 α-glucosidase inhibitory effect (α-glucosidase): 540 µg/mL
"CN(C)C(=N)N=C(N)N [metformin, reference compound]",–,–,–,glucose uptake stimulation (3T3-L1 adipocytes; 2 mM): 85.34%
Oc1cc(O)c2c(c1)O[C@H](c1ccc(O)c(O)c1)[C@H](O)C2 [Epicatechin],inhibitory effect on NO production at only high concentrations,> 50 µM,> 50 µM,α-glucosidase inhibitory ability (in words) [3]: no effect
